{"source": "patent US8791138B2", "about": "“Compositions and methods for alleviating depression or improving cognition” (Clera Inc., priority 2008, dated 2014)", "key": {"[1]": {"system": "depressive symptoms in acute exacerbations of schizophrenia", "conditions": "amisulpride 400-800 mg/day, haloperidol 15-20 mg/day, risperidone 8 mg/day; Peuskens et al. 2002; cited from earlier work"}, "[2]": {"target": "T1, cloned dopamine D3 receptors (Homo sapiens, UniProt P35462)", "T1 construct": "expressed in transfected cells", "T1 sequence (P35462 whole entry)": "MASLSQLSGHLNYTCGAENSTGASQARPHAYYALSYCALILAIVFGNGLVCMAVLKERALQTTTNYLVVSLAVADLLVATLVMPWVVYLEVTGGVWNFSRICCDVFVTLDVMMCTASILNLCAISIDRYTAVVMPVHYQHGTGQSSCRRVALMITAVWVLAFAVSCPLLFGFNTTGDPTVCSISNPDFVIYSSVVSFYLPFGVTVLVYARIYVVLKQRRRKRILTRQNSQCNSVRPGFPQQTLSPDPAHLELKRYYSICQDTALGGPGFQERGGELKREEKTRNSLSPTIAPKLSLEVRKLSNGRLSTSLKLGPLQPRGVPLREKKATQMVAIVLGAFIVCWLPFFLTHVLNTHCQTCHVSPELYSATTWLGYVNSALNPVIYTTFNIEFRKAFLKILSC", "assay": "Radioligand Kd at cloned dopamine D3 receptors", "type": "binding"}, "[3]": {"system": "dopamine behavioral supersensitivity", "assay": "Dopamine behavioral supersensitivity in animals", "type": "in vivo", "conditions": "P. Seeman, Unpublished Results"}, "[4]": {"system": "duration of immobility in the forced swimming test", "conditions": "mice, Nakazawa et al. 2003, cited from earlier work"}, "[5]": {"system": "depression (Major Depressive Disorder)", "assay": "Clinical observation of treatment-resistant depression patients, Hamilton Scale for Depression", "type": "in vivo, human", "excerpt": "All subjects were patients of a clinic for treatment-resistant depression at a tertiary hospital. Treatment-resistance was defined as a treatment failure on at least two other antidepressants prior to their referral to the clinic. Patients were deemed to be depressed by the referring psychiatrist as well as the treating psychiatrist according to DSM IV Criteria for Major Depressive Disorder.\nThe higher the value, the more severe the depression."}}, "note": "pKd: −log10 of the molar value.", "data": [{"smiles": "CCN1CCCC1CNC(=O)c1cc(S(=O)(=O)CC)c(N)cc1OC", "note": "(stereo not shown) [amisulpride]", "values": [{"measurement": "Brief Psychiatric Rating Scale (BPRS) anxiety/depression subscore", "setting": "[1]", "result": "5.6±6.1"}]}, {"smiles": "CCN1CCC[C@H]1CNC(=O)c1c(O)c(Cl)cc(Cl)c1OC", "note": "(racemic) [[^3H]raclopride]", "values": [{"measurement": "pKd", "setting": "[2]", "result": 8.80}]}, {"smiles": "CNCCC(Oc1ccc(C(F)(F)F)cc1)c1ccccc1", "note": "(stereo not shown) [fluoxetine]", "values": [{"measurement": "dopamine behavioral supersensitivity in animals", "setting": "[3]", "result": "cause dopamine behavioral supersensitivity"}]}, {"smiles": "Cc1nc2n(c(=O)c1CCN1CCC(c3noc4cc(F)ccc34)CC1)CCCC2", "note": "[risperidone]", "values": [{"measurement": "Brief Psychiatric Rating Scale (BPRS) anxiety/depression subscore", "setting": "[1]", "result": "3.7±4.7"}]}, {"smiles": "CN(C)CCCN1c2ccccc2CCc2ccccc21", "note": "[imipramine]", "values": [{"measurement": "dopamine behavioral supersensitivity in animals", "setting": "[3]", "result": "cause dopamine behavioral supersensitivity"}]}, {"smiles": "O=c1cc(-c2ccc(O)cc2)oc2cc(O)cc(O)c12", "note": "[apigenin]", "values": [{"measurement": "duration of immobility in the forced swimming test", "setting": "[4]", "result": "significantly decreased"}]}, {"smiles": "O=C(CCCN1CCC(O)(c2ccc(Cl)cc2)CC1)c1ccc(F)cc1", "note": "[haloperidol]", "values": [{"measurement": "Rating after end of haloperidol (Hamilton depression scale)", "setting": "[5]; Subject A, 5th week after starting medication, rating before 7-day regimen 14", "result": "9 (5th week)"}, {"measurement": "Rating after end of haloperidol (Hamilton depression scale)", "setting": "[5]; Subject B, 5th week after starting medication, rating before 7-day regimen 18", "result": "15 (5th week)"}, {"measurement": "Rating after end of haloperidol (Hamilton depression scale)", "setting": "[5]; Subject C, 5th week after starting medication, rating before 7-day regimen 30", "result": "12 (5th week)"}, {"measurement": "Rating after end of haloperidol (Hamilton depression scale)", "setting": "[5]; Subject D, 5th week after starting medication, rating before 7-day regimen 40", "result": "32 (5th week)"}, {"measurement": "Rating after end of haloperidol (Hamilton depression scale)", "setting": "[5]; Subject E, 4th week after starting medication, rating before 7-day regimen 23", "result": "7 (4th week)"}, {"measurement": "Rating after end of haloperidol (Hamilton depression scale)", "setting": "[5]; Subject F, 5th week after starting medication, rating before 7-day regimen 20", "result": "4 (5th week)"}, {"measurement": "Rating after end of haloperidol (Hamilton depression scale)", "setting": "[5]; Subject G, 5th week after starting medication, rating before 7-day regimen 24", "result": "13 (5th week)"}, {"measurement": "severity of the depression after the 7-day treatment regimen", "setting": "[5]; all patients, oral 0.2-0.3 mg/day graded for 7 days", "result": "decreased"}, {"measurement": "Brief Psychiatric Rating Scale (BPRS) anxiety/depression subscore", "setting": "[1]", "result": "4.4±5.5"}, {"measurement": "effect on apigenin-induced decrease in immobility in the forced swimming test", "setting": "[4]; haloperidol 0.2 mg/kg", "result": "blocked"}]}]}
